Data on 2 compounds can be found in patent US20220233468A1 (priority 2021, published 2022).

As usually defined, the EC50 is the concentration that produces a half-maximal response.

“Also recorded” adds a separate entry of the source. Where two headings read alike, the source gives them in different places.

The subject of assay [1] is SARS-CoV-2 S pseudovirions. Description: microbe, parasite or virus in culture. It is filed as cell-based. The following applies: Severe acute respiratory syndrome coronavirus 2.
The subject of the next assay is TMPRSS2. Description: TMPRSS2 protein expression in cell lines by Western blotting. It is filed as cell-based, human; mouse. As to conditions: a-tubulin internal control, A549, H1299, CL1-5, Beas-2B, TC-1, MLE-12 cell lines, 18 to 24 hrs treatment. The protocol: The effects of Compound A and Compound B on TMPRSS2 were investigated in A549 (human alveolar epithelial cell), H1299 (human non-small cell lung carcinoma cell), CL1-5 (human lung adenocarcinoma cell), Beas-2B (human normal bronchial epithelial cell), TC-1 (mouse lung epithelial cell) and MLE-12 (mouse lung epithelial cell) cell lines. The expression of TMPRSS2 in cells was analyzed by Western blotting, and a-tubulin was used as an internal control.
(In general: Immunoblotting shows a protein as a band on a membrane.)

[2] abbreviates: read-out: EC50, inhibition of cellular entry of SARS-CoV-2 S pseudovirions.

In the case of `COc1ccc(/C=C/C(=O)C(F)(CC2CCC2)C(=O)/C=C/c2ccc(OC)c(OC)c2)cc1OC` [Compound A, 4-fluoro-4-cyclobutylmethyl-1,7-bis(3,4-dimethoxyphenyl)hepta-1,6-diene-3,5-dione], the concentration for a half-maximal effect (EC50) in assay [1] (setting [2]) was about 5.3 µM. For the same compound, in the assay on TMPRSS2, the “protein expression of TMPRSS2” value is given as “inhibit the protein expression of TMPRSS2”.
Consider `COc1ccc(/C=C/C(=O)C(CC2CCC2)C(=O)/C=C/c2ccc(OC)c(OC)c2)cc1OC` [Compound B, 4-(cyclobutylmethyl)-1,7-bis(3,4-dimethoxyphenyl)hepta-1,6-diene-3,5-dione], for which the EC50 was about 4.6 µM in assay [1] (setting [2]) and about 3.5 µM in assay [1] (read-out: EC50, prophylactic inhibition of cellular entry of pseudovirions, wild-type Spike). In addition, in the assay on TMPRSS2, the “protein expression of TMPRSS2” value is listed as “inhibit the protein expression of TMPRSS2; also recorded: greater TMPRSS2 inhibitory activity as compared to Compound A”.
